Experiment [1] deals with T1, beta-catenin/TCF4 engagement (Homo sapiens, UniProt P35222).
T1 construct: expressed in transfected cells; host or cells: HEK293
T1 sequence (P35222 1-781): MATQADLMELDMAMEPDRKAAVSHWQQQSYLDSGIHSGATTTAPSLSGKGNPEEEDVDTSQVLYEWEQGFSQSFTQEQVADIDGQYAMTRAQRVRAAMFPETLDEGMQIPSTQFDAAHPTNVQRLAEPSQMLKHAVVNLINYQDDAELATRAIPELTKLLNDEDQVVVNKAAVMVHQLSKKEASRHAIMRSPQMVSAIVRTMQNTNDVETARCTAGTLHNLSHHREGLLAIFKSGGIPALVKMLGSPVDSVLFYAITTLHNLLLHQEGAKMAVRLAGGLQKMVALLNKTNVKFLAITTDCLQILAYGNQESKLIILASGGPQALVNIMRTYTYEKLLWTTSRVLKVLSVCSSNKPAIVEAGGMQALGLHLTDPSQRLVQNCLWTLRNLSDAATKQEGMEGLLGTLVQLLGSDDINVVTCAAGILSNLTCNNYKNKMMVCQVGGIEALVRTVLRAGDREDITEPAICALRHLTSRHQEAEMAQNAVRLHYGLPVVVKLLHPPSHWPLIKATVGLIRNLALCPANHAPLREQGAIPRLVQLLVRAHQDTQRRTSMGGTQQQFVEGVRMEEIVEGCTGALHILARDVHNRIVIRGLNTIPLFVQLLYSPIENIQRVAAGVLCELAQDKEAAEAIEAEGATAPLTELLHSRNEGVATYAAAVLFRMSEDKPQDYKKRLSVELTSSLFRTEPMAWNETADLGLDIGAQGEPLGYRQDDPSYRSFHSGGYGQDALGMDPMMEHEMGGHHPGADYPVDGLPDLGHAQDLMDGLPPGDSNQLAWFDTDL
In words: Nano-BRET target engagement assay (B-cat-Halo & TCF4-Luc in HEK293 cells). Format: cell-based. The conditions noted are these: read-out: NanoBRET Abs IC50.

Experiment [2] has as its target T2, full-length beta-Catenin (Uniprot ID P35222) (Homo sapiens, UniProt P35222).
T2 construct: 10 nM full-length beta-Catenin (Uniprot ID P35222)
T2 sequence (P35222 1-781): T1 sequence (P35222 1-781)
Put plainly: Fluorescence polarization IC50 (beta-catenin / 5FAM-TCF4 10-53 competition). The class given is binding. Particulars: fluorescence polarization; read-out: beta-Catenin FP IC50. A general note: Polarisation of emitted light reports the rotation of a fluorescent probe.

We go through 13 molecules from patent US20240116985A1, “STAPLED PEPTIDES AND METHODS THEREOF” (priority 2020, published 2024).

Bounds are passed on as bounds.

As a reminder, the IC50 is the point on the concentration scale where inhibition reaches its midpoint. As to `CC(=O)N1CCC[C@]12CC=CCCCC1(CCCC=CCCCOC(=O)N3CC[C@@](C(=O)N[C@@H](Cc4ccsc4)C(=O)N[C@@H](Cc4csc5ccccc45)C(=O)N[C@H](C(N)=O)C(C)C)(C3)NC(=O)[C@H](CC(C)C)NC(=O)[C@H](Cc3ccccc3)NC(=O)[C@H](C)NC(=O)[C@H](CCC(N)=O)NC(=O)[C@H](Cc3cccc(C(=O)O)c3)NC(=O)[C@H](CC(=O)O)NC1=O)NC(=O)[C@H](CC(C)(C)C)NC(=O)[C@H](CC(=O)O)NC2=O` (stereo partly drawn) [I-2055, Ac-PL3-Asp-Npg-B5-Asp-3COOHF-Gln-Ala-Phe-Leu-PyrS2-3Thi-BztA-Val-NH2], the IC50 in experiment [1] was found to be 10.5 µM; in experiment [2] it was 0.013 µM.

For the molecule `CC(=O)N1CCC[C@]12CC=CCCCC1(CCCC=CCCCOC(=O)N3CC[C@@](C(=O)N[C@@H](Cc4ccsc4)C(=O)N[C@@H](Cc4csc5ccccc45)C(=O)N[C@@H](CC(C)C)C(N)=O)(C3)NC(=O)[C@H](CC(C)C)NC(=O)[C@H](Cc3ccccc3)NC(=O)[C@H](C)NC(=O)[C@H](CCC(N)=O)NC(=O)[C@H](Cc3cccc(C(=O)O)c3)NC(=O)[C@H](CC(=O)O)NC1=O)NC(=O)[C@H](CC(C)(C)C)NC(=O)[C@H](CC(=O)O)NC2=O` (stereo partly drawn) [I-2056, Ac-PL3-Asp-Npg-B5-Asp-3COOHF-Gln-Ala-Phe-Leu-PyrS2-3Thi-BztA-Leu-NH2], the IC50 in experiment [1] was found to be 6.5 µM; in experiment [2] it was 0.016 µM.

Regarding `CC(=O)N1CCC[C@]12CC=CCCCC1(CCCC=CCCCOC(=O)N3CC[C@@](C(=O)N[C@@H](Cc4ccccc4C(F)(F)F)C(=O)N[C@@H](Cc4csc5ccccc45)C(=O)N[C@@H](C)C(N)=O)(C3)NC(=O)[C@H](CC(C)C)NC(=O)[C@H](Cc3ccccc3)NC(=O)[C@H](C)NC(=O)[C@H](CC(N)=O)NC(=O)[C@H](Cc3cccc(C(=O)O)c3)NC(=O)[C@H](CC(=O)O)NC1=O)NC(=O)[C@H](CC(C)(C)C)NC(=O)[C@H](CC(=O)O)NC2=O` (stereo partly drawn) [I-2058, Ac-PL3-Asp-Npg-B5-Asp-3COOHF-Asn-Ala-Phe-Leu-PyrS2-2F3MeF-BztA-Ala-NH2], the values for the IC50 in experiment [1] and in experiment [2] were 3.9 µM and 0.01 µM, respectively.

Regarding `CC(=O)N1CCC[C@]12CC=CCCCC1(CCCC=CCCCOC(=O)N3CC[C@@](C(=O)N[C@@H](Cc4ccccc4C(F)(F)F)C(=O)N[C@@H](Cc4csc5ccccc45)C(=O)N[C@@H](C)C(N)=O)(C3)NC(=O)[C@H](CC(C)C)NC(=O)[C@H](Cc3ccccc3)NC(=O)[C@H](C)NC(=O)[C@H](CO)NC(=O)[C@H](Cc3cccc(C(=O)O)c3)NC(=O)[C@H](CC(=O)O)NC1=O)NC(=O)[C@H](CC(C)(C)C)NC(=O)[C@H](CC(=O)O)NC2=O` (stereo partly drawn) [I-2059, Ac-PL3-Asp-Npg-B5-Asp-3COOHF-Ser-Ala-Phe-Leu-PyrS2-2F3MeF-BztA-Ala-NH2], the 50% inhibitory concentration (IC50) in experiment [1] worked out at 4.8 µM; in experiment [2], 0.038 µM.

Turning to `CC(=O)N1CCC[C@]12CC=CCCCC1(CCCC=CCCCOC(=O)N3CC[C@@](C(=O)N[C@@H](Cc4ccccc4C(F)(F)F)C(=O)N[C@@H](Cc4csc5ccccc45)C(=O)N[C@@H](C)C(N)=O)(C3)NC(=O)[C@H](CC(C)C)NC(=O)[C@H](Cc3ccccc3)NC(=O)[C@H](C)NC(=O)[C@H]([C@@H](C)O)NC(=O)[C@H](Cc3cccc(C(=O)O)c3)NC(=O)[C@H](CC(=O)O)NC1=O)NC(=O)[C@H](CC(C)(C)C)NC(=O)[C@H](CC(=O)O)NC2=O` (stereo partly drawn) [I-2060, Ac-PL3-Asp-Npg-B5-Asp-3COOHF-Thr-Ala-Phe-Leu-PyrS2-2F3MeF-BztA-Ala-NH2], the results for the IC50 in experiment [1] and in experiment [2] were 9.6 µM and 0.056 µM, respectively.

For `CC(=O)N1CCC[C@]12CC=CCCCC1(CCCC=CCCCOC(=O)N3CC[C@@](C(=O)N[C@@H](Cc4ccccc4Cl)C(=O)N[C@@H](Cc4csc5ccccc45)C(=O)N[C@@H](CCS(C)(=O)=O)C(N)=O)(C3)NC(=O)[C@H](CC(C)C)NC(=O)[C@H](Cc3ccccc3)NC(=O)[C@H](C)NC(=O)[C@H](C)NC(=O)[C@H](Cc3cccc(C(=O)O)c3)NC(=O)[C@H](CC(=O)O)NC1=O)NC(=O)[C@H](CC(C)(C)C)NC(=O)[C@H](CC(=O)O)NC2=O` (stereo partly drawn) [I-2062, Ac-PL3-Asp-Npg-B5-Asp-3COOHF-Ala-Ala-Phe-Leu-PyrS2-2C1F-BztA-Met2O-NH2], the IC50 is 3 µM in experiment [1] and 0.041 µM in experiment [2].

Take `CC(=O)N1CCC[C@]12CC=CCCCC1(CCCC=CCCCOC(=O)N3CC[C@@](C(=O)N[C@@H](Cc4ccccc4C(F)(F)F)C(=O)N[C@@H](Cc4csc5ccccc45)C(=O)N[C@@H](CCS(C)(=O)=O)C(N)=O)(C3)NC(=O)[C@H](CC(C)C)NC(=O)[C@H](Cc3ccccc3)NC(=O)[C@H](C)NC(=O)[C@H](C)NC(=O)[C@H](Cc3cccc(C(=O)O)c3)NC(=O)[C@H](CC(=O)O)NC1=O)NC(=O)[C@H](CC(C)(C)C)NC(=O)[C@H](CC(=O)O)NC2=O` (stereo partly drawn) [I-2063, Ac-PL3-Asp-Npg-B5-Asp-3COOHF-Ala-Ala-Phe-Leu-PyrS2-2F3MeF-BztA-Met2O-NH2]: the IC50 came out at 3.5 µM in experiment [1] and 0.056 µM in experiment [2].

In the case of `CC(=O)N1CCC[C@]12CC=CCCCC1(CCCC=CCCCOC(=O)N3CC[C@@](C(=O)N[C@@H](Cc4ccsc4)C(=O)N[C@@H](Cc4csc5ccccc45)C(=O)N[C@@H](C)C(N)=O)(C3)NC(=O)[C@H](CC(C)C)NC(=O)[C@H](Cc3ccccc3)NC(=O)[C@H](C)NC(=O)[C@H](CCS(C)(=O)=O)NC(=O)[C@H](Cc3cccc(C(=O)O)c3)NC(=O)[C@H](CC(=O)O)NC1=O)NC(=O)[C@H](CC(C)(C)C)NC(=O)[C@H](CC(=O)O)NC2=O` (stereo partly drawn) [I-2064, Ac-PL3-Asp-Npg-B5-Asp-3COOHF-Met2O-Ala-Phe-Leu-PyrS2-3Thi-BztA-Ala-NH2], the figures for the IC50 in experiment [1] and in experiment [2] were 11.8 µM and 0.016 µM, respectively.

Take `CC(=O)N1CCC[C@]12CC=CCCCC1(CCCC=CCCCOC(=O)N3CC[C@@](C(=O)N[C@@H](Cc4ccccc4)C(=O)N[C@@H](Cc4csc5ccccc45)C(=O)N[C@@H](C)C(N)=O)(C3)NC(=O)[C@H](CC(N)=O)NC(=O)[C@H](Cc3ccccc3)NC(=O)[C@H](C)NC(=O)[C@H](CCCCNC(C)C)NC(=O)[C@H](CCC(N)=O)NC(=O)[C@H](CC(=O)O)NC1=O)NC(=O)[C@H](CC1CCCCC1)NC(=O)[C@H](CC(N)=O)NC2=O` (stereo partly drawn) [I-2065, Ac-PL3-Asn-Cha-B5-Asp-Gln-iPrLys-Ala-Phe-Asn-PyrS2-Phe-BztA-Ala-NH2]: the figures for the IC50 in experiment [1] and in experiment [2] were over 20 µM and 0.144 µM, respectively.

With `CC(=O)N1CCC[C@]12CC=CCCCC1(CCCC=CCCCOC(=O)N3CC[C@@](C(=O)N[C@@H](Cc4ccccc4)C(=O)N[C@@H](Cc4csc5ccccc45)C(=O)N[C@@H](CCO)C(N)=O)(C3)NC(=O)[C@H](CC(N)=O)NC(=O)[C@H](Cc3ccccc3)NC(=O)[C@H](C)NC(=O)[C@H](CCC(N)=O)NC(=O)[C@H](CCC(N)=O)NC(=O)[C@H](CC(=O)O)NC1=O)NC(=O)[C@H](CC1CCCCC1)NC(=O)[C@H](CC(N)=O)NC2=O` (stereo partly drawn) [I-2067, Ac-PL3-Asn-Cha-B5-Asp-Gln-Gln-Ala-Phe-Asn-PyrS2-Phe-BztA-Hse-NH2], the figures for the IC50 in experiment [1] and in experiment [2] were over 20 µM and 0.18 µM, respectively.

Turning to `CC(=O)N1CCC[C@]12CC=CCCCC1(CCCC=CCCCOC(=O)N3CC[C@@](C(=O)N[C@@H](Cc4ccccc4)C(=O)N[C@@H](Cc4csc5ccccc45)C(=O)N[C@@H](Cc4ccccc4)C(N)=O)(C3)NC(=O)[C@H](CC(N)=O)NC(=O)[C@H](Cc3ccccc3)NC(=O)[C@H](C)NC(=O)[C@H](CCCCNC(C)C)NC(=O)[C@H](CCC(N)=O)NC(=O)[C@H](CC(=O)O)NC1=O)NC(=O)[C@H](CC1CCCCC1)NC(=O)[C@H](CC(N)=O)NC2=O` (stereo partly drawn) [I-2068, Ac-PL3-Asn-Cha-B5-Asp-Gln-iPrLys-Ala-Phe-Asn-PyrS2-Phe-BztA-Phe-NH2], the IC50 in experiment [1] is over 20 µM; in experiment [2] it was 0.338 µM.

As for `CC(=O)N1CCC[C@]12CC=CCCCC1(CCCC=CCCCOC(=O)N3CC[C@@](C(=O)N[C@@H](Cc4ccccc4)C(=O)N[C@@H](Cc4csc5ccccc45)C(=O)N[C@@H](C)C(N)=O)(C3)NC(=O)[C@H](CC(N)=O)NC(=O)[C@H](Cc3ccccc3)NC(=O)[C@H](C)NC(=O)[C@H](Cc3c[nH]cn3)NC(=O)[C@H](CCC(N)=O)NC(=O)[C@H](CC(=O)O)NC1=O)NC(=O)[C@H](CC1CCCCC1)NC(=O)[C@H](CC(N)=O)NC2=O` (stereo partly drawn) [I-2069, Ac-PL3-Asn-Cha-B5-Asp-Gln-His-Ala-Phe-Asn-PyrS2-Phe-BztA-Ala-NH2], the IC50 in experiment [1] was over 20 µM; in experiment [2] it was 0.256 µM.

As for `CC(=O)N1CCC[C@]12CC=CCCCC1(CCCC=CCCCOC(=O)N3CC[C@@](C(=O)N[C@@H](Cc4ccccc4)C(=O)N[C@@H](Cc4csc5ccccc45)C(=O)N[C@@H](C)C(N)=O)(C3)NC(=O)[C@H](CC(N)=O)NC(=O)[C@H](Cc3ccccc3)NC(=O)[C@H](C)NC(=O)[C@H](CCC(N)=O)NC(=O)[C@H](CCC(N)=O)NC(=O)[C@H](CC(=O)O)NC1=O)NC(=O)[C@H](CC1CCCCC1)NC(=O)[C@H](CC(N)=O)NC2=O` (stereo partly drawn) [I-2070, Ac-PL3-Asn-Cha-B5-Asp-Gln-Gln-Ala-Phe-Asn-PyrS2-Phe-BztA-Ala-NH2], the IC50 was over 20 µM in experiment [1] and 0.19 µM in experiment [2].
